Measurements taken from PMC8296573, “Synthesis and Biological Evaluation of Fingolimod Derivatives as Antibacterial Agents” (ACS Omega, 2021).
Converted amounts (≈) assume the structure as drawn. Read-outs that look alike come from different tables or passages of the source.

What was measured:
[1] = tested on: P. aeruginosa ATCC 9027; test: Antibacterial activity, pre-exposure; assay type: cell-based, Pseudomonas aeruginosa; details: for Average inhibition %, biofilms viability / Average inhibition %, planktonic cells viability / inhibition at 50 µM / inhibition at 100 µM / inhibition at 150 µM / inhibition at 200 µM: P. aeruginosa ATCC 9027, pre-exposure, ± SD; for MIC / inhibition at 50 µM / inhibition at 100 µM / inhibition at 150 µM / inhibition at 200 µM: Pseudomonas aeruginosa; for inhibition at 50 µM / inhibition at 100 µM / inhibition at 150 µM / inhibition at 200 µM: ATCC9027
Procedure, shortened: (§1)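 Pre-exposure format: compounds added with bacteria, 18 h aerobic at 37 °C with shaking. Planktonic growth read by OD and resazurin (20 μM final) fluorescence; biofilms by resazurin viability then crystal violet biomass (A595). Resazurin incubation time/temperature varied by species.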

[2] = tested on: A. baumannii NCTC 13423; test: Antibacterial activity, pre-exposure; assay type: cell-based, Acinetobacter baumannii; details: for Average inhibition %, biofilms viability / Average inhibition %, planktonic cells viability / inhibition at 10 µM / inhibition at 15 µM / inhibition at 25 µM / inhibition at 50 µM: A. baumannii NCTC 13423, pre-exposure, ± SD; for inhibition at 10 µM / inhibition at 15 µM / inhibition at 25 µM / inhibition at 50 µM / MIC: Acinetobacter baumannii, NCTC13423
Procedure, shortened: as §1

[3] = tested on: S. aureus ATCC 25923; test: Antibacterial activity, pre-exposure (planktonic cells and biofilm formation); assay type: cell-based, Staphylococcus aureus; details: for MIC / inhibition at 5 µM / inhibition at 10 µM / inhibition at 15 µM / inhibition at 25 µM: Staphylococcus aureus, ATCC25923; for inhibition at 5 µM / inhibition at 10 µM / inhibition at 15 µM / inhibition at 25 µM / Average inhibition %, biofilms viability / Average inhibition %, planktonic cells viability: pre-exposure, ± SD
Procedure, shortened: as §1

[4] = tested on: S. aureus ATCC 25923; test: Antibacterial activity, post-exposure on preformed 18-h-old biofilms; assay type: cell-based, Staphylococcus aureus; details: for Average inhibition %, biofilms viability / Average inhibition %, planktonic cells viability / inhibition at 25 µM / inhibition at 50 µM / inhibition at 100 µM / inhibition at 200 µM: ± SD; for inhibition at 25 µM / inhibition at 50 µM / inhibition at 100 µM / inhibition at 200 µM: Staphylococcus aureus; for inhibition at 25 µM: ATCC25923, 25 µM; for inhibition at 50 µM: ATCC25923, 50 µM; for inhibition at 100 µM: ATCC25923, 100 µM; for inhibition at 200 µM: ATCC25923, 200 µM
Procedure, shortened: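 Biofilms grown 18 h without compound, medium then replaced and compound added for a further 24 h. Planktonic OD and resazurin (20 μM final) fluorescence (ex 560/em 590 nm) read; washed biofilms stained with 20 μM resazurin 30 min at 37 °C, then ethanol-fixed and crystal violet-stained, absorbance 595 nm.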

[5] = 50 µM, read-out: Average inhibition %, biofilms biomass
[6] = 50 µM, read-out: Average inhibition %, planktonic cells turbidity
[7] = 10 µM, read-out: Average inhibition %, biofilms biomass
[8] = 10 µM, read-out: Average inhibition %, planktonic cells turbidity
[9] = 15 µM, read-out: Average inhibition %, biofilms biomass
[10] = 15 µM, read-out: Average inhibition %, planktonic cells turbidity
[11] = 25 µM, read-out: Average inhibition %, biofilms biomass
[12] = 25 µM, read-out: Average inhibition %, planktonic cells turbidity
[13] = read-out: Average inhibition %, biofilms biomass
[14] = read-out: Average inhibition %, planktonic cells turbidity

In the case of `CCCCCCCCc1ccc(CC(N)(CO)CO)cc1` [Compound 44, 2-Amino-2-(4-octylbenzyl)propane-1,3-diol], the “Average inhibition %, biofilms viability” value ([1]; 50 µM) is reported as 9 ± 8%, the “Average inhibition %, planktonic cells viability” value ([1]; 50 µM) is reported as 31.4 ± 12.8% and the “Average inhibition %, biofilms viability” value ([1]; 100 µM) is reported as 43 ± 44.4%. For the same compound, the “Average inhibition %, planktonic cells viability” value ([1]; 100 µM) was 95.8 ± 3.5%, the “Average inhibition %, biofilms viability” value ([1]; 150 µM) was 42.2 ± 50.3% and the “Average inhibition %, planktonic cells viability” value ([1]; 150 µM) was 92.1 ± 9.3%. For the same compound, the “Average inhibition %, biofilms viability” value ([1]; 200 µM) was 34.5 ± 36.6%, the “Average inhibition %, planktonic cells viability” value ([1]; 200 µM) was 88.7 ± 10.2% and the MIC ([1]; ATCC9027, pre-exposure, Inactive = no activity up to 200 μM, > = some inhibition but no MIC reached, read-out: MIC P. aeruginosa ATCC 9027) was > 200 µM. For the same compound, the MIC ([1]; ATCC9027, supplementary molecular formula strings sheet, read-out: MIC (P. aeruginosa)) was > 200 µM, the inhibition at 50 µM [1, 5] was 35.2 ± 19.9% and the inhibition at 50 µM [1, 6] was 28.4 ± 10.9%. It also gave an inhibition at 100 µM ([1]; 100 µM, read-out: Average inhibition %, biofilms biomass) of 57.7 ± 30.4%, an inhibition at 100 µM ([1]; 100 µM, read-out: Average inhibition %, planktonic cells turbidity) of 93.7 ± 2.6% and an inhibition at 150 µM ([1]; 150 µM, read-out: Average inhibition %, biofilms biomass) of 54.7 ± 35.2%. For the same compound, the inhibition at 150 µM ([1]; 150 µM, read-out: Average inhibition %, planktonic cells turbidity) was 92.2 ± 4.8%, the inhibition at 200 µM ([1]; 200 µM, read-out: Average inhibition %, biofilms biomass) was 48.7 ± 28.5% and the inhibition at 200 µM ([1]; 200 µM, read-out: Average inhibition %, planktonic cells turbidity) was 88.5 ± 4.4%. For the same compound, the “Average inhibition %, biofilms viability” value ([2]; 10 µM) was 0.6 ± 1%, the “Average inhibition %, planktonic cells viability” value ([2]; 10 µM) was 12.3 ± 2.4% and the “Average inhibition %, biofilms viability” value ([2]; 15 µM) was 8.6 ± 7.8%. The “Average inhibition %, planktonic cells viability” value ([2]; 15 µM) was 9.2 ± 5.8%, the “Average inhibition %, biofilms viability” value ([2]; 25 µM) was 88.7 ± 15.2% and the “Average inhibition %, planktonic cells viability” value ([2]; 25 µM) was 83.5 ± 27.6%. The “Average inhibition %, biofilms viability” value ([2]; 50 µM) was 99.9 ± 1%, the “Average inhibition %, planktonic cells viability” value ([2]; 50 µM) was 99.8 ± 0.5% and the inhibition at 10 µM [2, 7] was 0%. The inhibition at 10 µM [2, 8] was 0%, the inhibition at 15 µM [2, 9] was 5.6 ± 6.5% and the inhibition at 15 µM [2, 10] was 2.8 ± 3.7%. The inhibition at 25 µM [2, 11] was 69.4 ± 13.7%, the inhibition at 25 µM [2, 12] was 88.1 ± 19% and the inhibition at 50 µM [2, 5] was 86.2 ± 2.3%. For the same compound, the inhibition at 50 µM [2, 6] was 98.3 ± 1.2%, the MIC ([2]; pre-exposure, Inactive = no activity up to 50 μM, > = some inhibition but no MIC reached, read-out: MIC A. baumannii NCTC 13423) was 25 to 50 µM (≈ 7.34 to 14.7 µg/mL) and the MIC ([2]; supplementary molecular formula strings sheet, read-out: MIC (A. baumannii)) was 25 to 50 µM (≈ 7.34 to 14.7 µg/mL). For the same compound, the MIC ([3]; lowest concentration with no visible growth (>90% inhibition of turbidity and viability of planktonic cells), 18 h, read-out: MIC S. aureus ATCC 25923) was 15 to 25 µM (≈ 4.4 to 7.34 µg/mL), the inhibition at 5 µM ([3]; 5 µM, read-out: Average inhibition %, biofilms biomass) was 23.2 ± 23.4% and the inhibition at 5 µM ([3]; 5 µM, read-out: Average inhibition %, planktonic cells turbidity) was 18.4 ± 6.2%. It also gave an inhibition at 10 µM [3, 7] of 36.6 ± 27.8%, an inhibition at 10 µM [3, 8] of 31.2 ± 8.9% and an inhibition at 15 µM [3, 9] of 76.6 ± 21.5%. The inhibition at 15 µM [3, 10] was 79.2 ± 28.2%, the inhibition at 25 µM [3, 11] was 93.1 ± 4.2% and the inhibition at 25 µM [3, 12] was 99.1 ± 0.7%. The MIC ([3]; read-out: MIC (S. aureus)) was 15 to 25 µM (≈ 4.4 to 7.34 µg/mL), the “Average inhibition %, biofilms viability” value ([3]; 5 µM) was 24.9 ± 12.6% and the “Average inhibition %, planktonic cells viability” value ([3]; 5 µM) was 0 ± 0%. For the same compound, the “Average inhibition %, biofilms viability” value ([3]; 10 µM) was 44.4 ± 4.9%, the “Average inhibition %, planktonic cells viability” value ([3]; 10 µM) was 0 ± 0% and the “Average inhibition %, biofilms viability” value ([3]; 15 µM) was 76.2 ± 29.5%. The “Average inhibition %, planktonic cells viability” value ([3]; 15 µM) was 66.8 ± 54.1%, the “Average inhibition %, biofilms viability” value ([3]; 25 µM) was 99.7 ± 0% and the “Average inhibition %, planktonic cells viability” value ([3]; 25 µM) was 100 ± 0.2%. For the same compound, the “Average inhibition %, biofilms viability” value ([4]; 25 µM) was 21 ± 11.5%, the “Average inhibition %, planktonic cells viability” value ([4]; 25 µM) was 3.8 ± 6.6% and the “Average inhibition %, biofilms viability” value ([4]; 50 µM) was 38.2 ± 8.2%. The “Average inhibition %, planktonic cells viability” value ([4]; 50 µM) was 56.1 ± 15.4%, the “Inhibition of viability and total biomass of preformed biofilms” value ([4]; 100 μM) was “at least 70%” and the “Average inhibition %, biofilms viability” value ([4]; 100 µM) was 74 ± 21.5%. For the same compound, the “Average inhibition %, planktonic cells viability” value ([4]; 100 µM) was 99.8 ± 0.6%, the “Average inhibition %, biofilms viability” value ([4]; 200 µM) was 98.5 ± 0.1% and the “Average inhibition %, planktonic cells viability” value ([4]; 200 µM) was 100.1 ± 0.1%. The inhibition at 25 µM [4, 13] was 36 ± 3.3%, the inhibition at 25 µM [4, 14] was 6.1 ± 10.6% and the inhibition at 50 µM [4, 13] was 51.6 ± 10.7%. The inhibition at 50 µM [4, 14] was 58.6 ± 10.2%, the inhibition at 100 µM [4, 13] was 70.5 ± 19.2% and the inhibition at 100 µM [4, 14] was 84.7 ± 3.3%. The inhibition at 200 µM [4, 13] was 92 ± 1.2% and the inhibition at 200 µM [4, 14] was 85.9 ± 5.3%.
